Results on 1 molecule are retold here after patent US20220087987A1, “A METHOD FOR TREATING SWI/SNF COMPLEX-DEFICIENT CANCERS COMPRISING GLUTATHIONE (GSH) METABOLIC PATHWAY INHIBITOR” (National Cancer Center, priority 2018, published 2022).

The subject of data set [1] is ARID1A-proficient and ARID1A-deficient cancer cell lines. As to the kind of experiment: Cell viability and colony formation in cancer cell line panel. Conditions: four ARID1A-proficient and six ARID1A-deficient cell lines; cell viability, colony formation. It is filed as cell-based, human.
The subject of data set [2] is ARID1A-deficient TOV21G OCCC xenografts. In words: Mouse xenograft model, TOV21G. Type of data set: in vivo, mice. Conditions: APR-246 50 mg/kg. The method, then: All mouse experiments were approved by the National Cancer Center (NCC) animal Ethical Committee. Cells were counted and re-suspended in a 1:1 mixture of 100 μl culture medium and 100 μl Matrigel (BD Biosciences) on ice. […] In the subcutaneous model, once the tumors were palpable (about 3-14 days after implantation), mice were randomly divided into two groups. […] In the doxycycline (Dox) treatment study, TOV21G-shNT cells and TOV21G-shGCLC cells were injected into the flanks of 6-week-old female BALB/c-nu/nu mice. […] In other experiments, TOV21G-shNT cells and TOV21G-shGCLC cells were treated with Dox (0.5 μg/ml) for 4 days and then injected into the flank of 6-week-old female BALB/c-nu/nu mice. […] Tumor growth was measured every several days using calipers. The volume of implanted tumors was calculated using the formula V=L×W2/2, where V is volume (mm^3), L is the largest diameter (mm), and W is the smallest diameter (mm). At the end of the experiment, mice were sacrificed in accordance with standard protocols.
GSH was detected using the GSH-Glo Assay (Promega). Tumor samples derived from xenografts were weighed and washed with PBS. The tumor samples were mixed with 50 μl of PBS and homogenized using a Mini Cordless Grinder (Funakoshi). PBS (950 μl) was added to homogenized tumor samples and centrifuged at 4° C. for 10 min at 15,000 rpm. Tumor extract and 2×GSH-Glo Reagent (25 μl of each) were mixed in white 96-well plates (Greiner) and incubated for 30 min at room temperature. Luciferin Detection Reagent (50 μl) was added and the samples were incubated for 15 min at room temperature. Luminescence was measured using an Envision Multi-label plate reader (PerkinElmer). GSH signal intensities per 1 mg of tumor sample were calculated.
Formalin-fixed, paraffin-embedded ovarian cancer clinical specimens and TOV21G xenografts were deparaffinized and representative whole 4-μm-thick sections were analyzed by IHC. […] The samples were removed from the freezer and equilibrated at −20° C. for approximately 15 minutes before sectioning. Tissue sections (6 μm thick) were placed on positively charged slides, dried, and fixed for 15 minutes at room temperature in 3% formaldehyde, followed by 5 minutes in methanol at −20° C. After fixation, representative sections were analyzed by IHC. […] All IHC staining was performed using a Dako autostainer Link48 (Dako).
First, membrane staining intensity (0, 1+, 2+, or 3+) was determined for each cell in a fixed field. The H-score was assigned using the following formula: [1×(% cells 1+)+2×(% cells 2+)+3×(% cells 3+)]. The final score, ranging from 0 to 300, gives more relative weight to higher-intensity membrane staining in a given tumor sample. The percentage of NOXA-, cleaved caspase-3-, cleaved PARP- and Ki67-positive cells (of the total number of cells) in each slide were counted.

The subject of data set [3] is ARID1A-WT and ARID1A-KO HCT116 cells. In words: Cell viability and colony formation assays. The note with it: cell viability 5 days, colony formation 10 days. It is filed as cell-based, human. The method, then:
(§1) Cell viability was examined by measuring the cellular ATP level using the CellTiter-Glo Luminescent Cell Viability Assay (Promega). To measure cell viability after siRNA-mediated knockdown, cell lines were transfected with siRNAs (25 nM) using Lipofectamine RNAiMAX. After 48 hrs, cells were trypsinized and repeatedly transfected with siRNAs (25 nM) using Lipofectamine RNAiMAX. Cells were trypsinized after a further 48 hrs, counted, and reseeded at the specified density in 96-well plates. To measure cell viability after drug treatment, cells were trypsinized, counted, reseeded at the specified density in 96-well plates, and exposed to the indicated concentrations of drugs. Cell viability was measured using the CellTiter-Glo Luminescent Cell Viability Assay. Luminescence was measured using an Envision Multi-label plate reader (PerkinElmer).
The effect of drug treatment on cancer cell survival was evaluated in a colony formation assay. Cells were trypsinized, counted, reseeded at the specified density in 12-well plates, exposed to the indicated concentrations of drugs for 10-14 days, and fixed for 10 min in 50% (v/v) methanol containing 0.01% (w/v) crystal violet. Images were taken on LAS-3000 Imaging System (Fujifilm) and colonies were counted using Multi Gauge software.

Data set [4] concerns bile duct cancer cell lines. As to the kind of experiment: Cell viability of bile duct cancer cell lines. Type of data set: cell-based, human. The note with it: treatment for 6 days. The method, then: as §1
Data set [5] deals with TrxR (TrxR1, TrxR2 and TrxR3). In words: Detection of TrxR activity. It is filed as cell-based, human. Conditions: 24 hrs. The method, then:
TrxR activity including TrxR1, TrxR2 and TrxR3 was measured using the Thioredoxin Reductase Assay Kit (Abcam). Cells were trypsinized, counted, reseeded at the specified density in 10 cm dishes and exposed to the indicated concentrations of APR-246. After 24 hrs, cells were washed with cold PBS and lysed with buffer containing a proteinase inhibitor. After centrifugation, the supernatant was supplemented with a TrxR inhibitor and incubated for 20 min at 25° C. Absorbance was measured using an Envision Multi-label plate reader (PerkinElmer). Relative TrxR ratios were normalized against untreated samples.

The subject of a further data set is NOXA. In words: Quantitation of NOXA mRNA (quantitative RT-PCR). Type of data set: cell-based, human. The note with it: ARID1A-KO cells and ARID1A-deficient cancer cells, 24 hrs. The method, then:
mRNA was extracted and cDNA was synthesized using the SuperPrep (Registered Trademark) Cell Lysis & RT Kit for qPCR (TOYOBO). Aliquots of cDNA were subjected to quantitative PCR using the SuperPrep/THUNDERBIRD Probe qPCR Set (TOYOBO) and TaqMan Gene Expression Assays (Life Technologies). The following gene-specific primer/probe sets were used: NOXA (PMAIP1) (Hs00560402 ml), NRF2 (NFE2L2) (Hs00975961 g_1), GCLC (Hs00155249 ml), GSS (Hs00609286_m1), and SLC7A11 (Hs00921938_m1). PCR was performed in an ABI StepOnePlus Real-Time PCR System (Life Technologies) under the following conditions: denaturation at 95° C. for 15 s, followed by annealing and extension at 60° C. for 30 s (40 cycles). For each sample, the mRNA levels of target genes were normalized against levels of GAPDH mRNA. The target/GAPDH ratios were then normalized against those in control samples using the 2-ΔΔCt method.

In data set [6] the test system is uterine cancer cell lines. In words: Cell viability of uterine cancer cell lines. The note with it: treatment for 6 days. Type of data set: cell-based, human. The method, then: as §1

As for `COCC1(CO)C(=O)C2CCN1CC2` (stereo not shown) [APR-246], in data set [1], the “sensitivity of ARID1A-deficient versus ARID1A-proficient cancer cells” value is on record as “more sensitive to APR-246 than ARID1A-proficient cancer cells”. Moreover, in data set [2], the “GSH level in xenograft cells” value is recorded as “decreased”; the “apoptotic markers NOXA, cleaved PARP, cleaved caspase-3 and proliferation marker Ki67 (IHC)” value was “markedly increased expression of the apoptotic markers NOXA, cleaved PARP, and cleaved caspase-3, and decreased expression of the cell proliferation marker Ki67”; the “oxidative stress marker 8-OHdG (IHC, H-score)” value was “increased the level of the oxidative stress marker 8-hydroxy-2′-deoxyguanosine (8-OHdG) markedly”. In addition, in data set [2] (BSO 750 mg/kg), the tumor weight entry is listed as “reduced”. Also, the “body weight of mice” value in data set [2] (BSO 750 mg/kg once a day) is “did not cause significant loss of body weight”. Further, the “growth of xenografts (tumor volume)” value in data set [2] (intraperitoneally once daily 12-14 days, BSO 750 mg/kg) is given as “significantly suppressed the growth”. Further, the “growth / survival of ARID1A-KO versus ARID1A-WT cells” value in data set [3] is on record as “markedly decreased the survival of ARID1A-KO cells, but not ARID1A-WT cells”. Besides, the “IC50 values in ARID1A-deficient versus ARID1A-proficient bile duct cancer cell lines” value in data set [4] is reported as “markedly lower in two ARID1A-deficient cell lines than in two ARID1A-proficient cell lines”. Further, the TrxR activity result in data set [5] (ARID1A-WT or ARID1A-KO HCT116 cells, same concentrations as decrease GSH) is listed as “did not affect TrxR activity”. The “TrxR activity at a higher concentration” value in data set [5] (HCT116 cells, 50 μM) is “suppressed TrxR activity”. For the same molecule, in the data set on NOXA, the “mRNA expression of NOXA” value is given as “increased”. Besides, in data set [6], the “IC50 values in ARID1A-deficient versus ARID1A-proficient uterine cancer cell lines” value is “markedly lower in three ARID1A-deficient cell lines than in two ARID1A-proficient cell lines”.
